From US8946299B2, “Use of calixarenes associated with an antibiotic in the treatment of bacterial infections” (Universite de Lorraine, priority 2011, dated 2015)
Several values for one entry are separate records, joined by “and”; a condition that tells them apart may be missing. Equal values may be shown once.

What was measured:
[1] = test system: EcR1: Penicillinase-Producing Escherichia coli without Associated Resistance; assay: Antibiogram, MIC by the VITEK 2 system; assay type: cell-based; conditions: Table A1, category from MIC
Description: (§1) 5. Identification and Antibiogram 5.1 EcR1: Penicillinase-Producing Escherichia coli without Associated Resistance
(§2) The bacterial and antibiogram identification is carried out by the VITEK 2 system (bioMérieux) and by the disk diffusion technique.

[2] = test system: EcR1: Penicillinase-Producing Escherichia coli without Associated Resistance; assay: Antibiogram by the disk diffusion technique; assay type: cell-based; conditions: for Results (diameter): Table A1, category from diameter vs Dmin Dmax
Description: as §1, §2

[3] = test system: Escherichia coli strain ATCC 25922 (wild type); assay: Chessboard technique: MICs alone and synergism of Cx1 combinations; assay type: cell-based; conditions: for Initial MICs (antibiotic): antibiotic used alone, second figure of the cell
Excerpt: (§3) Three reference strains were used, corresponding to those studied for the MICs and MBCs (Minimum Bactericidal Concentration): Escherichia coli ATCC 25922, Staphylococcus aureus ATCC 29213, Pseudomonas aeruginosa ATCC 27853. For each of these strains 3 corresponding clinical isolates were chosen, having various antibiotic-resistance profiles, routinely used in standard fashion: • EcR1, EcR2, EcR3; • SaR1, SaR3, SaR4; • PaR2, PaR3, PaR5.
(§4) 1.3. Procedure: Chessboard Technique
(§5) The bacterial suspension is transferred to a 15 mL Falcon tube, centrifuged for 10 min at 4500 g, then the pellet is re-suspended in 1 mL of sterile distilled water. Suitable dilutions are then prepared in order to obtain a bacterial inoculum between 5·10^5 and 5·10^6 CFU/mL.
(§6) The MICs of the antibiotics were previously determined for each strain, by the method of microdilution in a liquid medium (CLSI (Clinical and Laboratory Standards Institute), 2003).
(§7) The same procedure is followed for the Cx1. […] Thus 64 ATB/Cx1 combinations are obtained.
(§8) The final volume contained in each of the wells must be 100 μL. Two controls must be present on each plate: • column 1 and 12: medium control • column 2 and 11: medium+bacteria control
(§9) Cx1: […] in the wells of […], starting with the lowest concentration.
(§10) ATB: 25 μL in the wells of rows H to A (columns 3 to 11), starting with the lowest concentration.
(§11) 50 μL in each of the wells of columns 2 to 11.
(§12) D2: Reading the Turbidity at 540 Nm.
(§13) The FIC (Fractional Inhibitory Concentration Index) value is determined by the following formula:
(§14) [formula] MICA in combination MICA alone MICB in combination MICB alone
(§15) When FIC≦0.5, there is a synergistic effect between antibiotic A and antibiotic B.
(§16) When 0.5<FIC≦1, there is an additive effect between antibiotic A and antibiotic B.
(§17) When 1<FIC≦4, there is an indifferent effect between antibiotic A and antibiotic B.
(§18) When FIC>4, there is an antagonistic effect between antibiotic A and antibiotic B.
(§19) For each strain and each antibiotic/Cx1 combination, the experiments were repeated a minimum of 3 times.

[4] = test system: ESBL-producing strain of Escherichia coli (EcR3); assay: as above; assay type: cell-based; conditions: n = 4; for Initial MICs (antibiotic): antibiotic used alone, second figure of the cell
Excerpt: as §3, §4, §5, §6, §7, §8, §9, §10, §11, §12, §13, §14, §15, §16, §17, §18, §19

[5] = test system: penicillinase-producing strain of Escherichia coli without associated resistance (EcR1); assay: as above; assay type: cell-based; conditions: n = 4; for Initial MICs (antibiotic): antibiotic used alone, second figure of the cell
Excerpt: as §3, §4, §5, §6, §7, §8, §9, §10, §11, §12, §13, §14, §15, §16, §17, §18, §19

[6] = test system: cephalosporinase-hyperproducing strain of Escherichia coli (EcR2); assay: as above; assay type: cell-based; conditions: n = 4; for Initial MICs (antibiotic): antibiotic used alone, second figure of the cell
Excerpt: as §3, §4, §5, §6, §7, §8, §9, §10, §11, §12, §13, §14, §15, §16, §17, §18, §19

[7] = test system: Pseudomonas aeruginosa strain having a resistance to β-lactams, the trimethoprim-sulphamethoxazole combination and fosfomycin (PaR2); assay type: cell-based; conditions: n = 4; for MIC (antibiotic): antibiotic used alone, second figure of the cell
Excerpt: as §3, §4, §5, §6, §7, §8, §9, §10, §11, §12, §13, §14, §15, §16, §17, §18, §19

[8] = test system: Pseudomonas aeruginosa strain having a resistance to β-lactams (including the carbapenems), aminoglycosides, the trimethoprim-sulphamethoxazole combination and …; assay: Chessboard technique: MICs alone and synergism of Cx1 combinations; assay type: cell-based; conditions: n = 4; for MIC (antibiotic): antibiotic used alone, second figure of the cell
Excerpt: as §3, §4, §5, §6, §7, §8, §9, §10, §11, §12, §13, §14, §15, §16, §17, §18, §19

[9] = test system: Pseudomonas aeruginosa strain ATCC 27853 (wild type); assay: as above; assay type: cell-based; conditions: for MIC (antibiotic): antibiotic used alone, second figure of the cell
Excerpt: as §3, §4, §5, §6, §7, §8, §9, §10, §11, §12, §13, §14, §15, §16, §17, §18, §19

[10] = test system: mucoid strain of Pseudomonas aeruginosa having a resistance to rifampicin and the trimethoprim-sulphamethoxazole combination (PaR5); assay: as above; assay type: cell-based; conditions: n = 4; for MIC (antibiotic): antibiotic used alone, second figure of the cell
Excerpt: as §3, §4, §5, §6, §7, §8, §9, §10, §11, §12, §13, §14, §15, §16, §17, §18, §19

[11] = test system: MRSA strain without associated resistance (SaR1); assay: as above; assay type: cell-based, Staphylococcus aureus; conditions: n = 4
Excerpt: as §3, §4, §5, §6, §7, §8, §9, §10, §11, §12, §13, §14, §15, §16, §17, §18, §19

[12] = test system: MRSA strain having a resistance to the aminoglycosides and fluoroquinolones (SaR3); assay: as above; assay type: cell-based, Staphylococcus aureus; conditions: n = 4
Excerpt: as §3, §4, §5, §6, §7, §8, §9, §10, §11, §12, §13, §14, §15, §16, §17, §18, §19

[13] = test system: MRSA strain having a resistance to the aminoglycosides, fluoroquinolones, macrolides-lincosamides-synergistins and ofloxacin (SaR4); assay: as above; assay type: cell-based, Staphylococcus aureus; conditions: n = 4
Excerpt: as §3, §4, §5, §6, §7, §8, §9, §10, §11, §12, §13, §14, §15, §16, §17, §18, §19

[14] = test system: Escherichia coli, Staphylococcus aureus and Pseudomonas aeruginosa strains; assay: Chessboard technique, summary over all strains and combinations tested; assay type: cell-based
Excerpt: as §3, §4
The FIC (Fractional Inhibitory Concentration Index) value is determined by the following formula: […]
as §19

[15] = test system: Staphylococcus aureus strain ATCC 29213 (wild type); assay: Chessboard technique: MICs alone and synergism of Cx1 combinations; assay type: cell-based
Excerpt: as §3, §4, §5, §6, §7, §8, §9, §10, §11, §12, §13, §14, §15, §16, §17, §18, §19

[16] = test system: EcR2: Cephalosporinase-Hyperproducing Escherichia coli; assay: Antibiogram by the disk diffusion technique; assay type: cell-based; conditions: Table B2; strain EcR2; diameters
Description: 5.2 EcR2: Cephalosporinase-Hyperproducing Escherichia coli Having an Associated Resistance to the Aminoglycosides, Quinolones and the Trimethoprim-Sulphamethoxazole Combination
The bacterial and antibiogram identification is carried out by the VITEK 1 system (bioMérieux) and by the disk diffusion technique

[17] = test system: SaR3: Meticillin-Resistant Staphylococcus aureus; assay: Antibiogram by the disk diffusion technique; assay type: cell-based; conditions: Table E1; strain SaR3
[18] = test system: SaR1: Meticillin-Resistant Staphylococcus aureus without Associated Resistance; assay: Antibiogram by the VITEK 2 system; assay type: cell-based; conditions: Table D1; strain SaR1
Description: 5.4 SaR1: Meticillin-Resistant Staphylococcus aureus without Associated Resistance
The bacterial and antibiogram identification is carried out by the VITEK 2 system (bioMérieux)
February 2006: Detection of the gene mecA by the PCR technique: POSITIVE Expert finding July 2006: totally typical phenotype: modification of the PLPs The fluctuations relative to the type of associated resistance for certain strains between Tables D1 and D2 are due to the development of the French (CA-SFM), European (EUCAST) and American (CLSI) recommendations for the categorization of bacterial strains. 5.5 SaR3: Meticillin-Resistant Staphylococcus aureus Having an Associated Resistance to the Aminoglycosides and Fluoroquinolones The bacterial and antibiogram identification is carried out by the VITEK 2 system (bioMérieux) and by the disk diffusion technique

[19] = antibiotic used alone, second figure of the cell
[20] = Cx1 used alone, first figure of the cell
[21] = Cx1 used alone, first figure of the cell, n = 4

Compound	Results (MIC) [1]	Results (diameter) [2]	Initial MICs (antibiotic) ([3]; n = 4)	Initial MICs (antibiotic) [4] [mg/L]	Initial MICs (antibiotic) [5] [mg/L]	Initial MICs (antibiotic) [6]	MIC (antibiotic) [7] [µg/mL]	MIC (antibiotic) [8]	MIC (antibiotic) ([9]; n = 4) [µg/mL]	MIC (antibiotic) [10] [µg/mL]	nature of the interaction between Cx1 and the antibiotic [14]	other results
CCN1CCN(C(=O)N[C@@H](C(=O)N[C@@H]2C(=O)N3[C@@H]2SC(C)(C)[C@@H]3C(=O)O)c2ccccc2)C(=O)C1=O [Piperacillin]	Susceptible	Intermediate	2 mg/L	128	256	32 mg/L						
CO[C@H]1/C=C/O[C@@]2(C)Oc3c(C)c(O)c4c(O)c(c(/C=N/N5CCN(C)CC5)c(O)c4c3C2=O)NC(=O)/C(C)=C\C=C\[C@H](C)[C@H](O)[C@@H](C)[C@@H](O)[C@@H](C)[C@H](OC(C)=O)[C@@H]1C [Rifampicin]			4/4 mg/L	4	4	2/2 mg/L	64	32/32 mg/L	64	16		diameter in mm ([2]; Table A2, diameter): 16 mm
[H]/N=C(/N)N[C@H]1[C@H](O)[C@@H](O)[C@H](O[C@@H]2O[C@@H](C)[C@](O)(C=O)[C@H]2O[C@@H]2O[C@@H](CO)[C@H](O)[C@@H](O)[C@@H]2NC)[C@@H](N/C(N)=N\[H])[C@@H]1O [Streptomycin]											synergism	MIC (antibiotic) [11, 19]: 4 µg/mL; MIC (antibiotic) [12, 19]: 4 µg/mL; MIC (antibiotic) [13, 19]: 4 µg/mL; Initials MIC (antibiotic) ([15]; antibiotic used alone, second figure of the cell, n = 4): 4 µg/mL
NC[C@H]1O[C@H](O[C@H]2[C@H](O)[C@@H](O[C@H]3O[C@H](CO)[C@@H](O)[C@H](N)[C@H]3O)[C@H](N)C[C@@H]2N)[C@H](N)C[C@@H]1O [Tobramycin]	Susceptible	Susceptible		4		4 mg/L	1	64 mg/L	0.5	1	synergism	diameter in mm [16]: 10 mm
Pristinamycin												Diameter [17]: 23; Diameter [18]: 25
para-guanidinoethylcalix[4]arene [Cx1]												MIC (Cx1) [7, 20]: 32 µg/mL; MIC (Cx1) [11, 20]: 8 µg/mL; MIC (Cx1) [12, 20]: 8 mg/L and 8/8 mg/L; MIC (Cx1) [13, 20]: 8 µg/mL; MIC (Cx1) [8, 20]: 32 mg/L and 32/32 mg/L; Initial MICs (Cx1) ([9]; Cx1 alone, P. aeruginosa ATCC 27853): 32/32 mg/L and 32 mg/L; MIC (Cx1) [9, 21]: 32 µg/mL; Initial MICs (Cx1) ([15]; Cx1 alone, S. aureus ATCC 29213): 8 mg/L; Initials MIC (Cx1) [15, 21]: 8 mg/L and 8/8 mg/L; Initial MICs (Cx1) ([3]; Cx1 alone, E. coli ATCC 25922): 4 mg/L; Initial MICs (Cx1) [3, 21]: 4 mg/L and 2 mg/L and 4/4 mg/L; Initial MICs (Cx1) [4, 20]: 2 mg/L and 2/2 mg/L; MIC (Cx1) [10, 20]: 32/32 mg/L and 32 mg/L; Initial MICs (Cx1) [5, 20]: 2 mg/L; Initial MICs (Cx1) [6, 20]: 2 mg/L and 2/2 mg/L
